{"source": "patent US10864197B2", "about": "“Biphenyl sulfonamide compounds for the treatment of kidney diseases or disorders” (Retrophin, Inc., priority 2016, dated 2020)", "assay_type_in_all_cases": "in vivo, human", "key": {"[1]": {"experiment": "DUET trial: systolic and diastolic blood pressure", "settings": "double-blind period; irbesartan n=32, sparsentan n=64", "source_text": "DUET trial is a phase 2, double-blind, randomized, active-control, dose-escalation study (NCT01613118) that evaluates the efficacy and safety of sparsentan as a treatment for primary focal segmental glomerulosclerosis (FSGS), a rare disorder characterized by massive proteinuria and progressive loss of kidney function. Patients (ranging in age from 8 years to 75 years) with biopsy-proven primary FSGS (or documentation of a genetic mutation in a podocyte protein associated with the disease) having baseline urine protein to creatinine (“UP/C”) ratios greater than 1 g/g and estimated glomerular filtration rates greater than 30 ml/min were eligible for the study. […]\nPatients who signed consent and met all inclusion and exclusion criteria during the screening phase underwent a 2-week angiotensin receptor blocker (ARB) and angiotensin converting enzyme (ACE) inhibitor washout period before being randomly assigned to one of the three escalating dose cohorts receiving sparsentan (200 mg/day; 400 mg/day; and 800 mg/day) or a fixed maximal dose of active control (the ARB irbesartan, at 300 mg/day) in a 3:1 ratio within each cohort. The primary endpoint was the change in UP/C ratio (determined as a measure of urinary protein excretion) from baseline. […]"}, "[2]": {"system": "patients with primary focal segmental glomerulosclerosis (FSGS)", "experiment": "DUET phase 2 trial: change in urine protein to creatinine (UP/C) ratio, proteinuria", "settings": "for Reduction from Baseline in UP/C ratio (geometric least squares mean reduction) / Reduction from Baseline in UP/C ratio, intent-to-treat analysis: baseline to week 8; for Reduction from Baseline in UP/C ratio, intent-to-treat analysis: missing data imputed as zero change; for Proportion of patients who achieved UP/C ratio ≤1.5 g/g with >40% reduction: week 8", "source_text": "DUET trial is a phase 2, double-blind, randomized, active-control, dose-escalation study (NCT01613118) that evaluates the efficacy and safety of sparsentan as a treatment for primary focal segmental glomerulosclerosis (FSGS), a rare disorder characterized by massive proteinuria and progressive loss of kidney function. Patients (ranging in age from 8 years to 75 years) with biopsy-proven primary FSGS (or documentation of a genetic mutation in a podocyte protein associated with the disease) having baseline urine protein to creatinine (“UP/C”) ratios greater than […] and estimated glomerular filtration rates greater than 30 ml/min were eligible for the study. The inclusion criteria also included a mean seated blood pressure >[…] and <145/96 mmHg for patients aged 18 years or older, or, for patients aged <18 years of age, a mean seated blood pressure of >90/60 mmHg and <95th percentile for age, gender, and height. The inclusion criteria included an allowance for a stable dose of immunosuppressive medication for ≥1 month. […] Patients who signed consent and met all inclusion and exclusion criteria during the screening phase underwent a 2-week angiotensin receptor blocker (ARB) and angiotensin converting enzyme (ACE) inhibitor washout period before being randomly assigned to one of the three escalating dose cohorts receiving sparsentan (200 mg/day; 400 mg/day; and 800 mg/day) or a fixed maximal dose of active control (the ARB irbesartan, at 300 mg/day) in a 3:1 ratio within each cohort. The primary endpoint was the change in UP/C ratio (determined as a measure of urinary protein excretion) from baseline. […] After the completion of an 8-week double-blind period, the patients continued sparsentan treatment on their assigned doses in an open-label extension for 136 additional weeks. Irbesartan control arm patients were offered sparsentan treatment at the dose they would have received according to the double-blind dose group in which they were enrolled. The analysis of the primary endpoint included 96 randomized patients who received at least one dose of the study drug, and had both baseline and week 8 UP/C ratio values (i.e., had completed 8 weeks of double-blind treatment). The pre-specified analysis order was (1) all sparsentan doses vs. irbesartan; (2) sparsentan 800- and 400-mg doses vs. irbesartan; (3) sparsentan 400-mg dose vs. irbesartan; (4) sparsentan 800-mg dose vs. irbesartan. Baseline or week 8 UP/C ratio data were missing for 9 sparsentan-treated patients and 4 irbesartan-treated patients. An intent-to-treat analysis was conducted, in which the missing data were imputed as zero change in UP/C ratio. […] The results across sparsentan dose cohorts were similar to those observed without imputed data (Table 4)."}, "[3]": {"experiment": "DUET trial: eGFR and serum markers", "settings": "double-blind period", "source_text": "DUET trial is a phase 2, double-blind, randomized, active-control, dose-escalation study (NCT01613118) that evaluates the efficacy and safety of sparsentan as a treatment for primary focal segmental glomerulosclerosis (FSGS), a rare disorder characterized by massive proteinuria and progressive loss of kidney function. Patients (ranging in age from 8 years to 75 years) with biopsy-proven primary FSGS (or documentation of a genetic mutation in a podocyte protein associated with the disease) having baseline urine protein to creatinine (“UP/C”) ratios greater than 1 g/g and estimated glomerular filtration rates greater than 30 ml/min were eligible for the study. The inclusion criteria also included a mean seated blood pressure >[…] and <145/96 mmHg for patients aged 18 years or older, or, for patients aged <18 years of age, a mean seated blood pressure of >90/60 mmHg and <95th percentile for age, gender, and height. The inclusion criteria included an allowance for a stable dose of immunosuppressive medication for ≥1 month. Exclusion criteria included secondary FSGS; significant medical conditions related to cardiac, hepatic, or immune function; body mass index >[…] for adults or in the 99th percentile plus 5 for pediatric patients; hematocrit <27% or hemoglobin <[…]; serum potassium >5.5 mEq/L; and women who were pregnant, breastfeeding, or of child-bearing potential who were unwilling to use two methods of contraception.\nPatients who signed consent and met all inclusion and exclusion criteria during the screening phase underwent a 2-week angiotensin receptor blocker (ARB) and angiotensin converting enzyme (ACE) inhibitor washout period before being randomly assigned to one of the three escalating dose cohorts receiving sparsentan (200 mg/day; 400 mg/day; and 800 mg/day) or a fixed maximal dose of active control (the ARB irbesartan, at 300 mg/day) in a 3:1 ratio within each cohort. The primary endpoint was the change in UP/C ratio (determined as a measure of urinary protein excretion) from baseline. The proportion of patients achieving UP/C ratio ≤1.5 g/g with >40% reduction in UP/C ratio at Week 8, a modified responder analysis, was evaluated as secondary endpoint."}, "[4]": {"settings": "Baseline, sparsentan 200-800 mg/day (n=64), irbesartan 300 mg/day (n=32)"}, "[5]": {"settings": "Baseline, sparsentan 400-800 mg/day (n=51), irbesartan 300 mg/day (n=25)"}, "[6]": {"settings": "Week 8, sparsentan 200-800 mg/day (n=64), irbesartan 300 mg/day (n=32)"}, "[7]": {"settings": "Week 8, sparsentan 400-800 mg/day (n=51), irbesartan 300 mg/day (n=25)"}}}
{"smiles": "CCCCC1=NC2(CCCC2)C(=O)N1Cc1ccc(-c2ccccc2-c2nnn[nH]2)cc1", "note": "[Irbesartan, irbesartan, reference compound]", "values": [{"measurement": "mean systolic and diastolic blood pressures relative to baseline", "setting": "[1]", "result": "reductions"}, {"measurement": "Complete remission (UP/C ratio <0.3 g/g), number of patients", "setting": "[2]; 8-week double-blind period", "result": "in no irbesartan-treated patients"}, {"measurement": "UP/C ratio, maximum", "setting": "[2]; [4]", "result": 10.73, "unit": "g/g"}, {"measurement": "UP/C ratio, mean (SD)", "setting": "[2]; [4]", "result": "4.017 (2.6717) g/g"}, {"measurement": "UP/C ratio, median", "setting": "[2]; [4]", "result": 3.265, "unit": "g/g"}, {"measurement": "UP/C ratio, minimum", "setting": "[2]; [4]", "result": 0.88, "unit": "g/g"}, {"measurement": "UP/C ratio, maximum", "setting": "[2]; [5]", "result": 10.73, "unit": "g/g"}, {"measurement": "UP/C ratio, mean (SD)", "setting": "[2]; [5]", "result": "3.816 (2.7160) g/g"}, {"measurement": "UP/C ratio, median", "setting": "[2]; [5]", "result": 2.970, "unit": "g/g"}, {"measurement": "UP/C ratio, minimum", "setting": "[2]; [5]", "result": 0.88, "unit": "g/g"}, {"measurement": "UP/C ratio, maximum", "setting": "[2]; [6]", "result": 10.19, "unit": "g/g"}, {"measurement": "UP/C ratio, mean (SD)", "setting": "[2]; [6]", "result": "3.164 (2.2713) g/g"}, {"measurement": "UP/C ratio, median", "setting": "[2]; [6]", "result": 2.405, "unit": "g/g"}, {"measurement": "UP/C ratio, minimum", "setting": "[2]; [6]", "result": 0.43, "unit": "g/g"}, {"measurement": "UP/C ratio, maximum", "setting": "[2]; [7]", "result": 10.19, "unit": "g/g"}, {"measurement": "UP/C ratio, mean (SD)", "setting": "[2]; [7]", "result": "2.990 (2.3598) g/g"}, {"measurement": "UP/C ratio, median", "setting": "[2]; [7]", "result": 2.390, "unit": "g/g"}, {"measurement": "UP/C ratio, minimum", "setting": "[2]; [7]", "result": 0.43, "unit": "g/g"}, {"measurement": "Reduction from Baseline in UP/C ratio (geometric least squares mean reduction)", "setting": "[2]; dose cohort 200 mg sparsentan, irbesartan 300 mg/day", "result": 15.0, "unit": "%"}, {"measurement": "Reduction from Baseline in UP/C ratio (geometric least squares mean reduction)", "setting": "[2]; dose cohort 400 mg and 800 mg sparsentan, irbesartan 300 mg/day", "result": 19.0, "unit": "%"}, {"measurement": "Reduction from Baseline in UP/C ratio (geometric least squares mean reduction)", "setting": "[2]; dose cohort 400 mg and 800 mg sparsentan, irbesartan 300 mg/day, listed as irbesartan", "result": 19, "unit": "%"}, {"measurement": "Reduction from Baseline in UP/C ratio (geometric least squares mean reduction)", "setting": "[2]; dose cohort 400 mg sparsentan, irbesartan 300 mg/day", "result": 28.1, "unit": "%"}, {"measurement": "Reduction from Baseline in UP/C ratio (geometric least squares mean reduction)", "setting": "[2]; dose cohort 800 mg sparsentan, irbesartan 300 mg/day", "result": 9.3, "unit": "%"}, {"measurement": "Reduction from Baseline in UP/C ratio (geometric least squares mean reduction)", "setting": "[2]; dose cohort All (sparsentan 200-800 mg/day; irbesartan 300 mg/day)", "result": 18.5, "unit": "%"}, {"measurement": "Reduction from Baseline in UP/C ratio (geometric least squares mean reduction)", "setting": "[2]; dose cohort All (sparsentan 200-800 mg/day; irbesartan 300 mg/day), listed as irbesartan", "result": 19, "unit": "%"}, {"measurement": "Reduction from Baseline in UP/C ratio, intent-to-treat analysis", "setting": "[2]; dose cohort 200 mg", "result": 13.2, "unit": "%"}, {"measurement": "Reduction from Baseline in UP/C ratio, intent-to-treat analysis", "setting": "[2]; dose cohort 400 mg", "result": 23.6, "unit": "%"}, {"measurement": "Reduction from Baseline in UP/C ratio, intent-to-treat analysis", "setting": "[2]; dose cohort 400 mg and 800 mg", "result": 15.9, "unit": "%"}, {"measurement": "Reduction from Baseline in UP/C ratio, intent-to-treat analysis", "setting": "[2]; dose cohort 800 mg", "result": 9.7, "unit": "%"}, {"measurement": "Reduction from Baseline in UP/C ratio, intent-to-treat analysis", "setting": "[2]; dose cohort All", "result": 15.7, "unit": "%"}, {"measurement": "% Change from Baseline to Week 8 in UP/C ratio, geometric LSmeans", "setting": "[2]; sparsentan 200-800 mg/day (n=64), irbesartan 300 mg/day (n=32)", "result": "−18.5", "unit": "%"}, {"measurement": "% Change from Baseline to Week 8 in UP/C ratio, geometric LSmeans", "setting": "[2]; sparsentan 400-800 mg/day (n=51), irbesartan 300 mg/day (n=25)", "result": "−19.0", "unit": "%"}, {"measurement": "Proportion of patients who achieved UP/C ratio ≤1.5 g/g with >40% reduction", "setting": "[2]; dose cohort 200 mg", "result": 0.0, "unit": "%"}, {"measurement": "Proportion of patients who achieved UP/C ratio ≤1.5 g/g with >40% reduction", "setting": "[2]; dose cohort 400 mg", "result": 17.7, "unit": "%"}, {"measurement": "Proportion of patients who achieved UP/C ratio ≤1.5 g/g with >40% reduction", "setting": "[2]; dose cohort 400 mg and 800 mg", "result": 12.0, "unit": "%"}, {"measurement": "Proportion of patients who achieved UP/C ratio ≤1.5 g/g with >40% reduction", "setting": "[2]; dose cohort 800 mg", "result": 0.0, "unit": "%"}, {"measurement": "Proportion of patients who achieved UP/C ratio ≤1.5 g/g with >40% reduction", "setting": "[2]; dose cohort All", "result": 9.4, "unit": "%"}, {"measurement": "Proportion of patients who achieved UP/C ratio ≤1.5 g/g with >40% reduction", "setting": "[2]; dose cohort All, listed as irbesartan", "result": 9, "unit": "%"}, {"measurement": "change in N-terminal pro-B-type natriuretic peptide", "setting": "[3]", "result": "no significant change or difference"}, {"measurement": "change in albumin", "setting": "[3]", "result": "no significant change or difference"}, {"measurement": "change in eGFR", "setting": "[3]", "result": "no significant change or difference"}, {"measurement": "change in serum potassium", "setting": "[3]", "result": "no significant change or difference"}]}
